Activity calls are given as the source filed them. No cut-off for these calls is given here.
Key:
MDA-MB-231 = experiment: Cytotoxicity against human MDA-MB-231 cells assessed as reduction in cell viability after 24 hrs by MTT assay; type: functional, cell-based; details: MDA-MB-231, 24 h
A549 [1] = experiment: Cytotoxicity against human A549 cells assessed as reduction in cell viability after 24 hrs by MTT assay; type: functional, cell-based; details: A549, 24 h
HeLa = experiment: Cytotoxicity against human HeLa cells assessed as reduction in cell viability after 24 hrs by MTT assay; type: functional, cell-based
MCF7 = experiment: Cytotoxicity against human MCF7 cells assessed as reduction in cell viability after 24 hrs by MTT assay; type: functional, cell-based; details: MCF7, 24 h
A549 [2] = experiment: Inhibition of PI3K/Akt/mTOR signalling in human A549 cells assessed as downregulation of PI3K expression at 4 uM after 24 hrs by Western blot analysis; type: cell-based
A549 [3] = experiment: Induction of cell death in human A549 cells assessed as increase in LC3-2 expression after 24 hrs by Western blot analysis; type: functional, cell-based
A549 [4] = experiment: Cell cycle arrest in human A549 cells assessed as accumulation at S phase at 4 uM after 24 hrs by propidium iodide staining based flow cytometry (reference value: 8.85%); type: functional
A549 [5] = experiment: Inhibition of PI3K/Akt/mTOR signalling in human A549 cells assessed as downregulation of Akt expression at 4 uM after 24 hrs by Western blot analysis; type: cell-based
A549 [6] = experiment: Upregulation of PTEN expression in human A549 cells at 4 uM after 24 hrs by Cy-3 staining based immunoblot analysis; type: functional, cell-based
A549 [7] = experiment: Inhibition of PI3K/Akt/mTOR signalling in human A549 cells assessed as reduction in Akt phosphorylation at Ser-473 residue at 4 uM after 24 hrs by Western blot analysis; type: cell-based
A549 [8] = experiment: Inhibition of RAS/MEK/ERK signalling in human A549 cells assessed as decrease in phosphorylated MEK1/2 level at 4 uM after 24 hrs by Western blot analysis; type: cell-based
A549 [9] = experiment: Induction of autophagy in human A549 cells assessed as increase in Atg7 expression after 24 hrs by Western blot analysis; type: functional, cell-based
A549 [10] = experiment: Cell cycle arrest in human A549 cells assessed as accumulation at G0/G1 phase at 4 uM after 24 hrs by propidium iodide staining based flow cytometry (reference value: 69.5%); type: functional
A549 [11] = experiment: Inhibition of RAS/MEK/ERK signalling in human A549 cells assessed as decrease in phosphorylated ERK1/2 level at 4 uM after 24 hrs by Western blot analysis; type: cell-based
A549 [12] = experiment: Inhibition of PI3K/Akt/mTOR signalling in human A549 cells assessed as downregulation of mTOR expression at 4 uM after 24 hrs by Western blot analysis; type: cell-based
A549 [13] = experiment: Cell cycle arrest in human A549 cells assessed as accumulation at G2/M phase at 4 uM after 24 hrs by propidium iodide staining based flow cytometry (reference value: 21.58%); type: functional
A549 [14] = experiment: Cell cycle arrest in human A549 cells assessed as accumulation at subG1 phase at 4 uM after 24 hrs by propidium iodide staining based flow cytometry (reference value: 1.11%); type: functional
A549 [15] = experiment: Induction of cell death in human A549 cells assessed as LC3-mediated cytoplasmic vacuolation by Hoechst staining based assay; type: functional
A549 [16] = experiment: Cell cycle arrest in human A549 cells assessed as accumulation at G2/M phase at 10 uM after 24 hrs by propidium iodide staining based flow cytometry (reference value: 21.58%); type: functional
A549 [17] = experiment: Cell cycle arrest in human A549 cells assessed as accumulation at subG1 phase at 10 uM after 24 hrs by propidium iodide staining based flow cytometry (reference value: 1.11%); type: functional
A549 [18] = experiment: Cell cycle arrest in human A549 cells assessed as accumulation at S phase at 10 uM after 24 hrs by propidium iodide staining based flow cytometry (reference value: 8.85%); type: functional
A549 [19] = experiment: Cell cycle arrest in human A549 cells assessed as accumulation at G0/G1 phase at 10 uM after 24 hrs by propidium iodide staining based flow cytometry (reference value: 69.5%); type: functional

Structure (SMILES) | IC50 (MDA-MB-231) [µM] | IC50 (A549 [1]) [µM] | IC50 (HeLa) [µM] | IC50 (MCF7) [µM] | other results
OC1(C(F)(F)F)CS/C(=N\c2ccc(C(F)(F)F)cc2)N1CCc1ccccn1 (centres undefined) | 20.9 | 12.8 | 21 | 25.3 | 
CC(C)(C)N1/C(=N/c2ccc(Cl)c(C(F)(F)F)c2)SCC1(O)C(F)(F)F (centres undefined) | 4.03 | 3.26 | 5.54 | 32.3 | inhibition (A549 [2]): Active; Activity (A549 [3]): Active; Activity (A549 [4]): 3.05%; inhibition (A549 [5]): Active; Activity (A549 [6]): Active; inhibition (A549 [7]): Active; inhibition (A549 [8]): Active; Activity (A549 [9]): Active; Activity (A549 [10]): 82.31%; inhibition (A549 [11]): Active; inhibition (A549 [12]): Active; Activity (A549 [13]): 6.79%; Activity (A549 [14]): 8.63%
OC1(C(F)(F)F)CS/C(=N\c2ccccc2)N1CCN1CCOCC1 (centres undefined) | 23.8 | 21.2 | 26.1 | 37.4 | 
OC1(C(F)(F)F)CS/C(=N\c2ccc(Cl)c(C(F)(F)F)c2)N1CCN1CCOCC1 (centres undefined) | 5.92 | 4.15 | 6.24 | 18.2 | inhibition (A549 [2]): Active; Activity (A549 [3]): Active; Activity (A549 [4]): 1.89%; inhibition (A549 [5]): Active; Activity (A549 [6]): Active; inhibition (A549 [7]): Active; inhibition (A549 [8]): Active; Activity (A549 [9]): Active; Activity (A549 [10]): 81.78%; inhibition (A549 [11]): Active; inhibition (A549 [12]): Active; Activity (A549 [13]): 10.63%; Activity (A549 [14]): 6.04%
COc1ccc(N2/C(=N/c3ccc(F)cc3)SCC2(O)C(F)(F)F)cc1 (centres undefined) | 6.64 | 4.58 | 6.98 | 28.7 | 
OC1(C(F)(F)F)CS/C(=N\c2ccccc2)N1c1ccccc1 (centres undefined) | 20.9 | 18.6 | 29.4 | 25 | 
OC1(C(F)(F)F)CS/C(=N\c2ccccc2)N1C1CC1 (centres undefined) | 22.7 | 15.1 | 24.6 | 29.2 | 
OC1(C(F)(F)F)CS/C(=N\c2ccccc2)N1Cc1ccco1 (centres undefined) | 21.6 | 8.26 | 24.8 | 29.4 | 
OC1(C(F)(F)F)CS/C(=N\c2ccc(Cl)c(C(F)(F)F)c2)N1CCc1ccccn1 (centres undefined) | 19.6 | 6.02 | 7.12 | 11.3 | 
OC1(C(F)(F)F)CS/C(=N\c2ccccc2)N1CCc1ccccn1 (centres undefined) | 21.5 | 20.1 | 28.5 | 25.9 | 
OC1(C(F)(F)F)CS/C(=N\c2ccc(C(F)(F)F)cc2)N1Cc1ccco1 (centres undefined) | 21.7 | 13.1 | 19.7 | 25.1 | 
OC1(C(F)(F)F)CS/C(=N\c2ccccc2)N1Cc1cccs1 (centres undefined) | 23.1 | 11.1 | 24.8 | 33.8 | 
OC1(C(F)(F)F)CS/C(=N\c2cccc(C(F)(F)F)c2)N1c1cccc(C(F)(F)F)c1 (centres undefined) | 3.32 | 2.84 | 3.57 | 6.69 | inhibition (A549 [2]): Active; Activity (A549 [3]): Active; Activity (A549 [4]): 1.71%; inhibition (A549 [5]): Active; Activity (A549 [6]): Active; inhibition (A549 [7]): Active; inhibition (A549 [8]): Active; Activity (A549 [9]): Active; Activity (A549 [10]): 86.61%; inhibition (A549 [11]): Active; inhibition (A549 [12]): Active; Activity (A549 [13]): 8.15%; Activity (A549 [14]): 3.81%; Activity (A549 [15]): Active
OC1(C(F)(F)F)CS/C(=N\c2ccc(F)cc2)N1c1ccccc1 (centres undefined) | 19.6 | 17.1 | 32.4 | 25.8 | 
O=c1cc(N2CCOCC2)oc2c(-c3ccccc3)cccc12 [LY-294002] | 9.7 | 17.7 | 20.5 | 29.1 | Activity (A549 [16]): 9.24%; Activity (A549 [17]): 5.15%; Activity (A549 [18]): 3.24%; Activity (A549 [19]): 82.95%
OC1(C(F)(F)F)CS/C(=N\c2ccccc2)N1C1CCCCC1 (centres undefined) | 22.5 | 13.8 | 28.2 | 30.1 | 
CCCN1/C(=N/c2ccccc2)SCC1(O)C(F)(F)F (centres undefined) | 18.7 | 14.3 | 24.4 | 22.5 | 
OC1(C(F)(F)F)CS/C(=N\c2ccc(Cl)c(C(F)(F)F)c2)N1Cc1ccco1 (centres undefined) | 5.12 | 3.82 | 5.84 | 15.1 | inhibition (A549 [2]): Active; Activity (A549 [3]): Active; Activity (A549 [4]): 4.11%; inhibition (A549 [5]): Active; Activity (A549 [6]): Active; inhibition (A549 [7]): Active; inhibition (A549 [8]): Active; Activity (A549 [9]): Active; Activity (A549 [10]): 79.77%; inhibition (A549 [11]): Active; inhibition (A549 [12]): Active; Activity (A549 [13]): 11.8%; Activity (A549 [14]): 4.99%; Activity (A549 [15]): Active
OC1(C(F)(F)F)CS/C(=N\c2ccc(F)cc2)N1c1ccc(F)cc1 (centres undefined) | 21.3 | 14.8 | 30.7 | 34.1 | 
COc1ccc(N2/C(=N/c3ccc(C(F)(F)F)cc3)SCC2(O)C(F)(F)F)cc1 (centres undefined) | 20.6 | 15.2 | 16.8 | 29.2 | 
OC1(C(F)(F)F)CS/C(=N\c2ccc(F)c(Cl)c2)N1c1ccccc1 (centres undefined) | 19 | 16.8 | 19.9 | 22.9 | 
OC1(C(F)(F)F)CS/C(=N\c2ccccc2)N1CCc1c[nH]c2ccccc12 (centres undefined) | 20.6 | 10.6 | 27.7 | 26.6 | 
OC1(C(F)(F)F)CS/C(=N\c2ccc(Cl)c(C(F)(F)F)c2)N1Cc1cccs1 (centres undefined) | 4.48 | 3.57 | 6.41 | 11.4 | inhibition (A549 [2]): Active; Activity (A549 [3]): Active; Activity (A549 [4]): 5.81%; inhibition (A549 [5]): Active; Activity (A549 [6]): Active; inhibition (A549 [7]): Active; inhibition (A549 [8]): Active; Activity (A549 [9]): Active; Activity (A549 [10]): 75.3%; inhibition (A549 [11]): Active; inhibition (A549 [12]): Active; Activity (A549 [13]): 16.15%; Activity (A549 [14]): 3.57%; Activity (A549 [15]): Active

Source: ChEMBL document CHEMBL3817727, “Fluorinated thiazolidinols cause cell death in A549 lung cancer cells via PI3K/AKT/mTOR and MAPK/ERK signalling pathways” (Medchemcomm, 2016)
